Assay results as given in patent US20100137345A1, “PROPHYLACTIC AND THERAPEUTIC USE OF SIRTUIN INHIBITORS IN TNF-ALPHA MEDIATED PATHOLOGIES” (Universite Libre de Bruxelles, priority 2007, published 2010).
“Also recorded” adds a separate entry of the source.

Columns and labels:
murine dendritic cells [1] = test: TNF-alpha secretion by CpG-stimulated murine dendritic cells (ELISA); assay type: cell-based; details: stimulated overnight with graded doses of CpG, FIG. 1A
Protocol: (§1) Murine dendritic cells (FIG. 1A) or the murine macrophage-like cell line RAW264.7 cells (FIG. 1B) were cultured in the presence of sirtuin inhibitors as indicated or an equivalent amount of solvent (DMSO) and stimulated overnight with graded doses of CpG (FIG. 1A) or for 2 h with 100 ng/ml of lipopolysaccharide (LPS) from gram-negative bacteria. Cell supernatants were tested for tumor necrosis factor (TNF-alpha) content by ELISA.

RAW264.7 = test: TNF-alpha mRNA accumulation in LPS-stimulated RAW264.7 (quantitative RT-PCR); assay type: cell-based, murine; details: RAW264.7, stimulated 2 h by LPS, FIG. 3
Protocol: RAW264.7 were incubated in the presence of sirtuin inhibitors or equivalent doses of solvent (DMSO) as indicated and stimulated for 2 h by LPS. Expression of mRNA encoding for TNF-α was monitored using quantititative RT-PCR using standard procedures and the following forward and reverse primers (fwd: […]; rev: gctacgacgtgggctacag). […] Collectively, these observations indicate that sirtuin inhibitors may affect TNF-alpha secretion by interfering with at a post-transcriptional step.

[2] = Yang et al. 2007; cited from earlier work
murine dendritic cells [3] = test: RANTES secretion by CpG-stimulated murine dendritic cells (ELISA); assay type: cell-based; details: inferred from RANTES secretion, FIG. 2
Protocol: Murine dendritic cells were cultured in the presence of sirtuin inhibitors as indicated and stimulated overnight with graded doses of CpG. Cell supernatants were tested for RANTES content by ELISA.

[4] = test system: murine macrophage-like cell line RAW264.7; test: TNF-alpha secretion by LPS-stimulated RAW264.7 cells (ELISA); assay type: cell-based; details: stimulated 2 h with 100 ng/ml LPS, FIG. 1B
Protocol: as §1

SIRT1 = SIRT1 (Homo sapiens, UniProt Q96EB6); details: Howitz et al. 2003; cited from earlier work
Sequence of SIRT1 (Q96EB6 whole entry): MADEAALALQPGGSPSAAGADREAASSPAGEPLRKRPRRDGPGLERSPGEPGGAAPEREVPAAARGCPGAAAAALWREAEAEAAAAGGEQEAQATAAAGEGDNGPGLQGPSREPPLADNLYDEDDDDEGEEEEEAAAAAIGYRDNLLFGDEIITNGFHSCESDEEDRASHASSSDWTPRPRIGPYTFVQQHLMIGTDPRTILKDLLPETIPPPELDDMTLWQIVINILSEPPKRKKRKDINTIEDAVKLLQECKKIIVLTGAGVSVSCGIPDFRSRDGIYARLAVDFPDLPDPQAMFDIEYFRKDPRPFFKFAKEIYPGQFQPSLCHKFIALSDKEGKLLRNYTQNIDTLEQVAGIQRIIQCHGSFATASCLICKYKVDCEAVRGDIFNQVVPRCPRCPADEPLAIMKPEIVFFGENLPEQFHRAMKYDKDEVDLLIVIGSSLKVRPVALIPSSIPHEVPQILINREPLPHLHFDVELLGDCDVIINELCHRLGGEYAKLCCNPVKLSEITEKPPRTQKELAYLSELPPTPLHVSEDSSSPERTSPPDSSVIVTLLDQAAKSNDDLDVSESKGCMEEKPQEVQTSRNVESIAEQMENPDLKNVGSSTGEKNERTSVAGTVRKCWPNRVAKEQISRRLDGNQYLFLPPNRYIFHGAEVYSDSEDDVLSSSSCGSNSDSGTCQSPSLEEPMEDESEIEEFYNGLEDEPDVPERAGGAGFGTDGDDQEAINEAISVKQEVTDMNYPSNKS

Structure (SMILES)	TNF-alpha secretion (supernatant TNF-alpha content by ELISA) (murine dendritic cells [1])	intracellular accumulation of TNF-alpha mRNA (RAW264.7)	release of inflammatory cytokines induced by cigarette smoke extracts [2]	general inhibition of protein synthesis or induction of cell death (murine dendritic cells [3])	TNF-alpha secretion / cytokine production (supernatant TNF-alpha content by ELISA) [4]	inhibition of SIRT1 enzymatic activity (SIRT1)
CC(NC(=O)c1ccccc1/N=C/c1c(O)ccc2ccccc12)c1ccccc1 (stereo not shown) [sirtinol, 2-[(2-Hydroxynaphthalen-1-ylmethylene)amino]-N-(1-phenethyl)benzamide]	downregulation of TNF-alpha secretion	do not significantly affect TNF-alpha mRNA accumulation; also recorded: without significantly affecting the intracellular accumulation of TNF-alpha mRNA	could increase the release of inflammatory cytokines	do not generally inhibit protein synthesis nor induce cell death	inhibit TNF-α protein synthesis; also recorded: downregulation of TNF-alpha secretion; also recorded: may downregulate TNF-alpha cytokine production	–
Cc1ccc(C(=O)Nc2ccc(S(=O)(=O)O)c3cc(S(=O)(=O)O)cc(S(=O)(=O)O)c23)cc1NC(=O)c1cccc(NC(=O)Nc2cccc(C(=O)Nc3cc(C(=O)Nc4ccc(S(=O)(=O)O)c5cc(S(=O)(=O)O)cc(S(=O)(=O)O)c45)ccc3C)c2)c1 [suramin]	–	–	–	–	–	found to inhibit SIRT1 enzymatic activity
Oc1ccc2ccccc2c1Cc1c(O)nc(S)nc1-c1ccccc1 [cambinol, 5-((2-hydroxy-1-naphthyl)methyl)-2-mercapto-6-phenyl-4-pyrimidinol]	downregulation of TNF-alpha secretion	do not significantly affect TNF-alpha mRNA accumulation; also recorded: without significantly affecting the intracellular accumulation of TNF-alpha mRNA	–	do not generally inhibit protein synthesis nor induce cell death	inhibit TNF-α protein synthesis; also recorded: downregulation of TNF-alpha secretion; also recorded: may downregulate TNF-alpha cytokine production	–
